Source: patent US20230149383A1, “QUINOLINE COMPOUNDS FOR TREATING LUNG, LIVER, AND KIDNEY DISEASES, DISORDERS, OR CONDITIONS” (Aldeyra Therapeutics, Inc., priority 2020, published 2023)
Entries after “also recorded” stand apart in the source; their conditions may differ.

Tests used:
rat NAFLD model = experiment: 12-week choline deficient high fat diet rat study (NAFLD model); format: in vivo; details: 11 Week Groups (Day 84)
[1] = tested on: human precision cut liver slices (PCLS); experiment: Alcoholic liver injury model in precision-cut liver slices (PCLS); format: cell-based
Description: Alcohol abuse results in liver injury, including accumulation of RASP and an increase in inflammation. It is known to cause abnormalities in liver structure and function, including fatty liver, apoptosis, necrosis, fibrosis, and cirrhosis. In order to investigate the utility of the quinoline compounds described herein for reduction of RASP and/or treating liver and associated inflammatory disorders, we employed a known in vitro culture model that employs precision-cut liver slices (PCLS) to measure alcohol-induced liver injury. For this experiment, we used a liver sample donated from a […] with fibrosis. This experiment may also be performed on rat PCLS (procedure provided below). The model is described, for example in Klassen, L. W. et al., Biochemical Pharmacology 76 (2008), 426-436. In this model, PCLS retains excellent viability as determined by lactate dehydrogenase and adenosine triphosphate (ATP) levels over a 96-h period of incubation. The major enzymes of ethanol detoxification (alcohol dehydrogenase, aldehyde dehydrogenase, and cytochrome P4502E1), remain active and PCLS readily metabolizes ethanol and produces acetaldehyde. […] These PCLS secrete albumin, and albumin secretion was decreased by ethanol treatment. All of these impairments are reversed following the addition of 4-methylpyrazole, which is an inhibitor of ethanol metabolism. Therefore, this model system appears to mimic the ethanol-induced changes in the liver that have been previously reported in human and animal studies, and appears to be a useful model for the study of alcoholic liver disease.
Materials and Methods. For human PCLS studies, slices were cut as described below and incubated with conditions below for 24, 48, or 72 hours. Media were changed daily. • Control Media • 25 mM Ethanol Media. • Control Media+10 μM compound I-1 (7 μl of the 5 mg/ml I-1 solution in 1.7 ml) • Ethanol Media+10 μM compound I-1
Incubation of slices with ethanol is performed as follows. Following pre-incubation with WE, slices are incubated with media only (control), media+25 mM ethanol (ethanol), media+25 mM ethanol+0.50 mM 4-methylpyrazole as an optional positive control (ethanol +4-MP), media+0.50 mM 4-methylpyrazole (control+4-MP), control media+test compound, or ethanol media+test compound. The addition of 4-MP may be used in these studies as it is a general inhibitor of ethanol metabolism. The slices are placed in the Dynamic Organ Culture incubator and cultured at 37 C for up to 96 h, and every 24 h the appropriate media is replenished. In order to determine the concentration of ethanol and acetaldehyde in the media, the supernatant is analyzed using headspace gas chromatography.
Viability assays are performed as follows. Slice viability is determined by measuring adenosine triphosphate (ATP) and lactate dehydrogenase (LDH) levels. For the ATP assay, slices are harvested at the appropriate times, placed into 70% ethanol/2 mM EDTA, flash frozen, and stored at −70 C until assayed. Samples are thawed on ice, sonicated, and diluted in 0.1 M Tris-HCl/2 mM EDTA prior to use in a standard ATP assay kit.
For LDH determination, supernatant is collected and frozen at −70 C. The slice is solubilized in WE containing 2% Triton X-100 and LDH determined using a cytotoxicity detection kit (LDH) (e.g., available from Roche Applied Science, Penzberg, Germany). The absorbance of the samples is measured at 490 nm. All protein concentrations from the slices are determined using a BCA protein assay kit. To calculate the % Cytotoxicity at subsequent 24 h time points, the LDH in the media is divided by the total LDH in the PCLS and multiplied by 100.
Triglyceride analysis is performed as follows. At indicated time points, supernatant is removed and slices are washed in PBS (pH 7.4). Slices are placed in PBS containing 0.5% Triton-X100, sonicated, and the equivalent of […] of protein assayed for triglycerides using the serum triglyceride kit. […]

[2] = tested on: STAM mouse model (NASH/HCC); experiment: STAM mouse model (NASH/HCC); format: in vivo
Description: The STAM™ model is a model that recapitulates the same disease progression as human NASH/HCC. In this model, male C57BL/6 mice aged two days are given a single dose of streptozotocin to reduce insulin secretory capacity. When the mice turn four weeks of age they start a high-fat diet feeding. This model has a background of late type 2 diabetes which progresses into fatty liver, NASH, fibrosis and consequently liver cancer (HCC). Compared to other NASH-HCC model mice, the disease progresses in a relatively short period of time, and liver cancer is developed in 100% of animals at 20 weeks of age. The model is widely used in NASH research, with more than 40 papers and 70 international conferences published using data from the STAM™ model so far. STAM™ model is able to reproduce many of the pathological features of human NASH. For example: ballooning degeneration of cells, a characteristic pathological feature of human NASH; burned-out NASH, in which lipid droplets decrease as fibrosis progresses; progression of fibrosis occurring around the central vein; a mild rise in ALT (a liver injury marker); increase in NASH markers such as CK-18; increase in human HCC markers such as glutamine synthase, glypican-3 and AFP have been observed.
In a STAM mouse model (NASH/HCC), animals at birth are given a low dose of STZ (200 ug) and then at 3 to 4 weeks these animals are fed a high fat diet. In the progression of the animal model, at 5 weeks fatty liver is evident, 7 weeks NASH is evident, 9 weeks fibrosis is evident, and at 10 weeks nodules are evident and necropsy is performed. In this study, three groups vehicle (0.5% methylcellulose) alone, BID (200 mg/kg in vehicle, BID=twice a day), and QID (200 mg/kg in vehicle, QID=[…]), dosing began at 4 weeks and continued to week ten of the animal model.

[3] = 200 mg/kg in 0.5% methylcellulose, BID and QID groups, week 4 to 10

CC(C)(O)c1nc2ccccc2cc1N [I-1]
NAS scores (rat NAFLD model): lower
overall effect on cellular stress and toxicity in response to ethanol [1]: acts as a chemoprotectant to reduce cellular stress and toxicity
triglyceride levels ([1]; 10 μM I-1 + 25 mM ethanol, 24, 48, 72 h): significantly decreased
acetaldehyde levels ([1]; 10 μM I-1, 24, 48, 72 h): appear to be decreased
ATP levels ([1]; 10 μM I-1, 24 and 48 hours): remain constant
ATP levels ([1]; 10 μM I-1, 72 hours): increase
cytotoxicity (LDH) levels ([1]; ethanol treated + 10 μM I-1): continued to drop
hepatic fibrosis [2, 3]: significantly reduced; also recorded: significant reduction
hepatic triglycerides [2, 3]: significantly reduced; also recorded: significant reduction
body weight gain ([2]; 200 mg/kg in methylcellulose, BID and QID (FIG. 10: QD or BID), vs vehicle): statistically significant reduction
